Measurements reported in the NIST ThermoML archive (doi:10.1016/j.tca.2012.05.025).

Assay: xn = mol fraction of the nth substance listed
Conditions: for surface tension liquid-gas: roughened platinum plate-detachment; for viscosity / mass density: 101 kPa, Liquid; for viscosity: Capillary tube (Ostwald / Ubbelohde) method; for mass density: Vibrating tube method

CN(C)CCCO [3-dimethylamino-1-propanol] + O
Conditions	mass density [kg/m3]	surface tension liquid-gas [mN/m]	viscosity [mPa·s]
298.15 K, x1 = 0.0979	–	36.93	–
298.15 K, x1 = 0.1002	978.93	–	6.617
298.15 K, x1 = 0.1971	–	35.21	–
298.15 K, x1 = 0.201	960.36	–	14
298.15 K, x1 = 0.2927	–	33.39	–
298.15 K, x1 = 0.297	943.21	–	19.6
298.15 K, x1 = 0.3979	–	32.02	–
298.15 K, x1 = 0.4001	929.16	–	20.8
298.15 K, x1 = 0.4996	–	31.04	–
298.15 K, x1 = 0.5013	917.07	–	19.5
298.15 K, x1 = 0.5975	–	30.56	–
298.15 K, x1 = 0.6019	907.19	–	15.1
298.15 K, x1 = 0.6939	899.28	–	12.3
298.15 K, x1 = 0.6998	–	29.87	–
298.15 K, x1 = 0.7946	–	29.33	–
298.15 K, x1 = 0.8006	891.51	–	9.402
298.15 K, x1 = 0.8989	885.51	–	7.474
298.15 K, x1 = 0.8997	–	28.22	–
298.15 K, x1 = 1	880.25	29.01	5.839
303.15 K, x1 = 0.0979	–	34.56	–
303.15 K, x1 = 0.1002	975.53	–	5.319
303.15 K, x1 = 0.1971	–	34.17	–
303.15 K, x1 = 0.201	956.53	–	10.8
303.15 K, x1 = 0.2927	–	31.4	–
303.15 K, x1 = 0.297	939.37	–	14.4
303.15 K, x1 = 0.3979	–	31.61	–
303.15 K, x1 = 0.4001	925.16	–	15.9
303.15 K, x1 = 0.4996	–	30.59	–
303.15 K, x1 = 0.5013	913.1	–	15.6
303.15 K, x1 = 0.5975	–	29.91	–
303.15 K, x1 = 0.6019	903.25	–	11.9
303.15 K, x1 = 0.6939	895.35	–	9.94
303.15 K, x1 = 0.6998	–	29.34	–
303.15 K, x1 = 0.7946	–	28.87	–
303.15 K, x1 = 0.8006	887.57	–	7.954
303.15 K, x1 = 0.8989	881.52	–	6.226
303.15 K, x1 = 0.8997	–	27.64	–
303.15 K, x1 = 1	876.46	29.28	4.963
308.15 K, x1 = 0.0979	–	32.51	–
308.15 K, x1 = 0.1971	–	32.13	–
308.15 K, x1 = 0.2927	–	30.61	–
308.15 K, x1 = 0.3979	–	30.51	–
308.15 K, x1 = 0.4996	–	30.2	–
308.15 K, x1 = 0.5975	–	29.3	–
308.15 K, x1 = 0.6998	–	28.72	–
308.15 K, x1 = 0.7946	–	28.45	–
308.15 K, x1 = 0.8997	–	26.42	–
308.15 K, x1 = 1	–	28.88	–
313.15 K, x1 = 0.0979	–	32.02	–
313.15 K, x1 = 0.1002	968.53	–	3.808
313.15 K, x1 = 0.1971	–	31.26	–
313.15 K, x1 = 0.201	948.48	–	7.433
313.15 K, x1 = 0.2927	–	29.79	–
313.15 K, x1 = 0.297	931.17	–	10.2
313.15 K, x1 = 0.3979	–	30.12	–
313.15 K, x1 = 0.4001	916.99	–	11
313.15 K, x1 = 0.4996	–	29.33	–
313.15 K, x1 = 0.5013	905.01	–	10.7
313.15 K, x1 = 0.5975	–	28.76	–
313.15 K, x1 = 0.6019	895.21	–	8.899
313.15 K, x1 = 0.6939	887.38	–	7.649
313.15 K, x1 = 0.6998	–	28.23	–
313.15 K, x1 = 0.7946	–	27.82	–
313.15 K, x1 = 0.8006	879.6	–	6.319
313.15 K, x1 = 0.8989	873.52	–	5.192
313.15 K, x1 = 0.8997	–	26.23	–
313.15 K, x1 = 1	868.42	28.47	4.266
318.15 K, x1 = 0.0979	–	30.72	–
318.15 K, x1 = 0.1971	–	29.83	–
318.15 K, x1 = 0.2927	–	28.55	–
318.15 K, x1 = 0.3979	–	29.78	–
318.15 K, x1 = 0.4996	–	28.69	–
318.15 K, x1 = 0.5975	–	28.51	–
318.15 K, x1 = 0.6998	–	27.87	–
318.15 K, x1 = 0.7946	–	27.54	–
318.15 K, x1 = 0.8997	–	25.6	–
318.15 K, x1 = 1	–	28.13	–
323.15 K, x1 = 0.0979	–	28.2	–
323.15 K, x1 = 0.1002	961.28	–	2.743
323.15 K, x1 = 0.1971	–	29.54	–
323.15 K, x1 = 0.201	940.25	–	4.975
323.15 K, x1 = 0.2927	–	28.28	–
323.15 K, x1 = 0.297	922.77	–	6.606
323.15 K, x1 = 0.3979	–	28.91	–
323.15 K, x1 = 0.4001	908.62	–	7.162
323.15 K, x1 = 0.4996	–	28.65	–
323.15 K, x1 = 0.5013	896.72	–	7.031
323.15 K, x1 = 0.5975	–	27.57	–
323.15 K, x1 = 0.6019	887.02	–	6.036
323.15 K, x1 = 0.6939	879.25	–	5.28
323.15 K, x1 = 0.6998	–	27.36	–
323.15 K, x1 = 0.7946	–	27.1	–
323.15 K, x1 = 0.8006	871.47	–	4.526
323.15 K, x1 = 0.8989	865.41	–	3.848
323.15 K, x1 = 0.8997	–	25.43	–
323.15 K, x1 = 1	860.29	27.63	3.253
333.15 K, x1 = 0.0979	–	26.75	–
333.15 K, x1 = 0.1002	953.71	–	2.169
333.15 K, x1 = 0.1971	–	28.32	–
333.15 K, x1 = 0.201	931.78	–	3.514
333.15 K, x1 = 0.2927	–	27.56	–
333.15 K, x1 = 0.297	914.15	–	4.536
333.15 K, x1 = 0.3979	–	27.91	–
333.15 K, x1 = 0.4001	900.04	–	4.707
333.15 K, x1 = 0.4996	–	27.54	–
333.15 K, x1 = 0.5013	888.25	–	4.797
333.15 K, x1 = 0.5975	–	26.74	–
333.15 K, x1 = 0.6019	878.64	–	4.286
333.15 K, x1 = 0.6939	870.93	–	3.831
333.15 K, x1 = 0.6998	–	26.36	–
333.15 K, x1 = 0.7946	–	26.32	–
333.15 K, x1 = 0.8006	863.22	–	3.369
333.15 K, x1 = 0.8989	857.19	–	2.94
333.15 K, x1 = 0.8997	–	24.76	–
333.15 K, x1 = 1	852.1	26.81	2.768
343.15 K, x1 = 0.1002	945.85	–	1.686
343.15 K, x1 = 0.201	923.1	–	2.575
343.15 K, x1 = 0.297	905.31	–	3.262
343.15 K, x1 = 0.4001	891.27	–	3.498
343.15 K, x1 = 0.5013	879.56	–	3.428
343.15 K, x1 = 0.6019	870.06	–	3.147
343.15 K, x1 = 0.6939	862.44	–	2.861
343.15 K, x1 = 0.8006	854.81	–	2.579
343.15 K, x1 = 0.8989	848.84	–	2.322
343.15 K, x1 = 1	843.77	–	2.03
